Assay: Elimination of jejunal piperacillin during parenteral piperacillin/tazobactam therapy, canine model
Format: in vivo, beagle dogs
Settings: i.v. 100 mg piperacillin and 12.5 mg tazobactam per kg; experiment 1; compared with ampicillin or amoxicillin
Experimental: Beagle dogs were treated with a combination of piperacillin and tazobactam without and with simultaneous beta-lactamase therapy. The experiments were performed essentially as those described in Examples 1 and 2, except that a single dose of the piperacillin/tazobactam combination contained 100 mg of piperacillin and 12.5 mg of tazobactam per kg of body weight, and the HPLC analysis method was elaborated to be suitable for analysis of piperacillin (the limit of quantification was 10 micrograms per gram of jejunal chyme).
Piperacillin values in experiment 1 represent jejunal piperacillin concentrations achieved after two separate administrations of piperacillin/tazobactam at a dosing interval of 6 hours without beta-lactamase treatment. Beagle dogs were treated with a piperacillin/tazobactam combination with concurrent beta-lactamase therapy in experiment 2.
The experiment was repeated except that the single dose of beta-lactamase pellets contained about 0.3 mg of active beta-lactamase per kg of body weight, and the single dose of the piperacillin/tazobactam combination contained 65.6 mg of piperacillin and 9.4 mg of tazobactam per kg of body weight.

CCN1CCN(C(=O)N[C@@H](C(=O)N[C@@H]2C(=O)N3[C@@H]2SC(C)(C)[C@@H]3C(=O)O)c2ccccc2)C(=O)C1=O [piperacillin]
biliary elimination of piperacillin without beta-lactamase: considerably higher than that of ampicillin or amoxicillin
